From US11021444B2, “Antiviral compounds” (priority 2013, dated 2021)
Like-named read-outs stand apart in the source and are kept apart here.

Assays:
recombinant RSV complex = recombinant RSV complex (Human respiratory syncytial virus A, UniProt P28887); experiment: RSV Polymerase Inhibition Assay; type: biochemical
Protocol: Standard RSV polymerase assays were conducted in the presence of 10 nM recombinant RSV complex in a reaction buffer containing Tris-HCl pH7.5, 6 mM MgCl2, and other additives and substrates including RNA oligonucleotides and radionucleotides. Standard reactions were incubated in 96-well plate format for 2 h at 30° C., in the presence of increasing concentration of inhibitor. The reaction was stopped with 90 μL of 0.1M EDTA, and the reaction product was transferred to a “reading” 96-well plate. After washing of the plate, radiolabeled RNA products were detected according to standard procedures with a Trilux Topcount scintillation counter.

[1] = system: Respiratory Syncytial Virus (RSV) long strain; experiment: microbe, parasite or virus in culture; type: cell-based; settings: human respiratory syncytial virus, Tables A and B list compounds by EC50 band
Protocol: (§1) CPE reduction assays are performed as described by Sidwell and Huffman et al., Appl. Microbiol. (1971) 22(5):797-801 with slight modifications. HEp-2 cells (ATCC #, CCL-23) are seeded at a density of 1,500 cells/30 μl/well into the 384-well cell plate(s) (Corning #3701) one day prior to the assay. Compounds are added into 384-well cell plates by Labcyte POD 810 Plate Assembler system. Each of the test compounds is provided to duplicate wells of a 384-well cell plate at final concentrations starting from 100 μM or 1 μM using 1/3 stepwise dilutions for 9 points. Quick-thaw Respiratory Syncytial Virus (RSV) long strain (ATCC #VR-26) stock in a 37° C. water bath. Place on ice until ready to use. Viruses are diluted to the concentration of 100 TCID50/30 μL with medium and 30 μl diluted RSV are added into related wells of 384-well cell plates. For each plate, sixteen wells are set aside as uninfected, untreated cell controls (CC), and nine wells per test plate receive virus only as a control for virus replication (VC). The final DMSO concentration of all wells is 1%. Place the plates at 37° C., 5% CO2 for 5 days.
After 5 days incubation, observe the CPE of cells in all wells. […] Six μl of cell counting kit-8 reagent (CCK-8, Dojindo Molecular Technologies Inc., CK04-20) are added to each well, which allows colorimetric assays to determine the number of viable cells through the dehydrogenase activity detection. After 3-4 hour incubation, the absorbance of each well is measured with a spectrophotometric plate reader at 450 nm wavelength, using a 630 nm filter as background according to manufacturer's instruction.

[2] = Cytotoxicity Determination (CCK-8, without addition of virus); type: cell-based; settings: human, 50% cytotoxicity concentration (CC50)
Protocol: as §1
In order to determine the compound cytotoxicity, in parallel, each of the compounds is applied to duplicate wells in a 384-well cell plate at serial final concentrations starting from 100 μM using 1/2 stepwise dilutions for 7 points without addition of virus. Incubate the cells at 37° C., 5% CO2 for 5 days. Add 6 μL CCK-8 into each well and incubate in a CO2 incubator at 37° C. for 3-4 hours.

[3] = HEp-2, 120 h, read-out: 50% effective concentration (EC50), HEp-2 cells infected with RSV long strain, 5 days, CCK-8 readout
[4] = 120 h, read-out: 50% effective concentration (EC50), HEp-2 cells infected with RSV long strain, 5 days, CCK-8 readout

Sequence of recombinant RSV complex (P28887 whole entry): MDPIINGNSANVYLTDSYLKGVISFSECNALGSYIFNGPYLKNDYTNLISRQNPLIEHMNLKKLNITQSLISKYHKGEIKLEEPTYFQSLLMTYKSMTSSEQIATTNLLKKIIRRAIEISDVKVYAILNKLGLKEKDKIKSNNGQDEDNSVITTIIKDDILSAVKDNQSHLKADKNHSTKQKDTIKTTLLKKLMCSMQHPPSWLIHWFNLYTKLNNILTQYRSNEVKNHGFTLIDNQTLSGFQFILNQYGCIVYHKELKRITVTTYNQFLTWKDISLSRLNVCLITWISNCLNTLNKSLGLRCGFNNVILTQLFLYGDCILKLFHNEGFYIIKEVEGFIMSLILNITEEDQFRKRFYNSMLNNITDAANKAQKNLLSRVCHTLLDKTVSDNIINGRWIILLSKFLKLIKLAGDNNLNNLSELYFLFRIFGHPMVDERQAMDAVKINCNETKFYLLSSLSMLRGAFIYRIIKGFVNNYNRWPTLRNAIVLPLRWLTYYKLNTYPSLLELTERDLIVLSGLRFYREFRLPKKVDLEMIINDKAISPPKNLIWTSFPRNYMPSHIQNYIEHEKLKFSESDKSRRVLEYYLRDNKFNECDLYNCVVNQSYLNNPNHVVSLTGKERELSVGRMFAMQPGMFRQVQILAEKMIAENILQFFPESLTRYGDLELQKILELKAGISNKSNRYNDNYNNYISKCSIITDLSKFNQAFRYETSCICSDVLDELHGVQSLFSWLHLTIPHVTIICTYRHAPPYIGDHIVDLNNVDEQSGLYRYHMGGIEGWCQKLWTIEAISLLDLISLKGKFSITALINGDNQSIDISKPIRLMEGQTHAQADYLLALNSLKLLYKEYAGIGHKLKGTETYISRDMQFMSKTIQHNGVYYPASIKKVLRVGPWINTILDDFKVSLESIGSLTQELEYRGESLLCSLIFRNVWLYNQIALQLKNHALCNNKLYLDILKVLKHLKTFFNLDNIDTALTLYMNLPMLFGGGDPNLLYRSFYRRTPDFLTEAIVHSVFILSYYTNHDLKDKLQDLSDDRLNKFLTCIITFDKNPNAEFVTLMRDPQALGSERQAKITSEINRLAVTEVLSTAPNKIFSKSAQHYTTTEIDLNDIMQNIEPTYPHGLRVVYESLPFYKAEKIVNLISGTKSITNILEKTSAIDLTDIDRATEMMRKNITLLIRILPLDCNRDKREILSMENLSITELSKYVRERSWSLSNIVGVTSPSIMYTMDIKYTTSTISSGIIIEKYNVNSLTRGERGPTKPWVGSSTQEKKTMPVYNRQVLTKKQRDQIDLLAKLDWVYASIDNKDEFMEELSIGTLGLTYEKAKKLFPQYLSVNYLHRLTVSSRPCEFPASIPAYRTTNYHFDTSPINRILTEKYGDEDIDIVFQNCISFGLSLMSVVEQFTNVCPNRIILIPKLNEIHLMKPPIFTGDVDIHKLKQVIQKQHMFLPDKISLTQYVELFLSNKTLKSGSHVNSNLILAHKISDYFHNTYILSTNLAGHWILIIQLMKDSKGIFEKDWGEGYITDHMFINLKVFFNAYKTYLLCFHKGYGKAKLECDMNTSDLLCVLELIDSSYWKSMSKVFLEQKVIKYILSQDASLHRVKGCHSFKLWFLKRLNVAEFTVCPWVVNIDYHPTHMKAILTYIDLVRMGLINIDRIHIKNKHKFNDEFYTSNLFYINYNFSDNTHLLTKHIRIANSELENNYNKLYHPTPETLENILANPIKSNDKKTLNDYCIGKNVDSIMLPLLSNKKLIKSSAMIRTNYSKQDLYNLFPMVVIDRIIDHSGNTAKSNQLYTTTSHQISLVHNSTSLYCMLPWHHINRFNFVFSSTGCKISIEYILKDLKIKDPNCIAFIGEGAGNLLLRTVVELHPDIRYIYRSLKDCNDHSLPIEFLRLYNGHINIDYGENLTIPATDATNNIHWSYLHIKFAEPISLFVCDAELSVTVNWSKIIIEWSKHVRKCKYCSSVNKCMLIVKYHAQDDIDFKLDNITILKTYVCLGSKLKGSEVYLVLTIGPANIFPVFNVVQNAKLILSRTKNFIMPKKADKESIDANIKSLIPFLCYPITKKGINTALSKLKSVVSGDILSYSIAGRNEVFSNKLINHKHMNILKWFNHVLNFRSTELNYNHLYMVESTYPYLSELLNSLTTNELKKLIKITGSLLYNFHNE
Sequence of recombinant RSV complex (P03421 whole entry, further chain): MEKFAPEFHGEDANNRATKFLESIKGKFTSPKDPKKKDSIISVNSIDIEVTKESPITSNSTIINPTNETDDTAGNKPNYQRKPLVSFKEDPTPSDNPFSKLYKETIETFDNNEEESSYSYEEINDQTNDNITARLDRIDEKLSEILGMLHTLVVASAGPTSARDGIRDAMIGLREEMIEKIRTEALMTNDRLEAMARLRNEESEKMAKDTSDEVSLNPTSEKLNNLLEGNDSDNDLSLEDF

Row | Compound | IC50 (recombinant RSV complex) | EC50 [1, 3] | CC50 at 5 days [2] | EC50 [1, 4]
1 | COc1cc(C(=O)NCC(O)(c2ccc(OCCN)c(-c3ccc(F)cc3)n2)C(F)(F)F)ccc1OC1CC1 (stereo not shown) [Compound 479] | < 1000 nM | < 1000 nM | 10 to 100 µM | –
2 | COc1cc(C(=O)NCC(O)(c2cn(C)nn2)c2ccc(OC)c(-c3ccc(F)c(Cl)c3)n2)ccc1OCCO (stereo not shown) [Compound 199] | < 1000 nM | < 1000 nM | > 100 µM | –
3 | COc1ccc(C(O)(CNC(=O)c2ccc3c(c2)ncn3C)C(F)(F)F)nc1-c1ccc(F)c(Cl)c1 (stereo not shown) [Compound 265] | < 10000 nM | 1000 to 50000 nM | 10 to 100 µM | –
4 | COc1ccc(C(O)(CNC(=O)c2ccc(OC3CCNC3=O)cc2)C(F)(F)F)nc1-c1ccc(F)c(Cl)c1 (stereo not shown) [Compound 261] | < 1000 nM | < 1000 nM | 10 to 100 µM | –
5 | COc1cc(C(=O)NCC(O)(c2cc(C(C)(C)N)cc(-c3ccc(F)c(Cl)c3)n2)C(F)(F)F)ccc1NS(C)(=O)=O (stereo not shown) [Compound 593] | < 1000 nM | < 1000 nM | 10 to 100 µM | –
6 | COc1cc(C(=O)NCC(=O)c2cc3c(c(-c4c[nH]c5c(F)cccc45)n2)OCC3)ccc1OCCF [Compound 287] | < 1000 nM | < 1000 nM | > 100 µM | –
7 | COc1cc(C(=O)NCC(O)(c2cc3c(c(-c4ccc(Cl)c(F)c4)n2)OCC3(C)N)C(F)(F)F)ccc1CO[C@@H](C)O (stereo partly shown) [Compound 666] | < 1000 nM | < 1000 nM | 10 to 100 µM | –
8 | COc1cc(C(=O)NCC(O)(c2cc3c(c(-c4ccc(F)c(Cl)c4)n2)OCC3(C)C)C(F)(F)F)ccc1CN1CCNC1=O (stereo not shown) [Compound 216] | < 10000 nM | 1000 to 50000 nM | 10 to 100 µM | –
9 | COc1cc(C(=O)NCC(O)(c2cc3c(c(-c4ccc(F)cc4)n2)OCC3(N)C(C)C)C(F)(F)F)ccc1OC[C@@H](C)O (stereo partly shown) [Compound 568] | < 1000 nM | < 1000 nM | 10 to 100 µM | –
10 | COc1cc(C(=O)NCC(N)(c2ccc(OC)c(-c3ccc(F)c(Cl)c3)n2)C(F)F)ccc1OC1CC1 (stereo not shown) [Compound 517] | < 1000 nM | < 1000 nM | 10 to 100 µM | –
11 | COc1cc(C(=O)NCC(O)(c2ccc(OC)c(-c3ccc(F)c(Cl)c3)n2)C2CC2)ccc1CCCO (stereo not shown) [Compound 426] | < 10000 nM | < 1000 nM | 10 to 100 µM | –
12 | COc1cc(C(=O)NCC(C)(O)c2cc3cc[nH]c3c(-c3ccc(F)c(Cl)c3)n2)ccc1OCCF (single isomer, unassigned) [Compound 296] | < 10000 nM | < 1000 nM | 10 to 100 µM | –
13 | COc1cc(C(=O)NC[C@@](O)(c2cc(C(C)(C)N)cc(-c3ccc(F)cc3)n2)C(F)(F)F)ccc1OC1CC1 [Compound 495] | < 1000 nM | < 1000 nM | 10 to 100 µM | –
14 | COc1cc(C(=O)NCC(O)(CN2CCNCC2=O)c2ccc(OC)c(-c3ccc(F)c(Cl)c3)n2)ccc1OCCO (stereo not shown) [Compound 196] | < 1000 nM | 1000 to 50000 nM | > 100 µM | –
15 | COc1ccc(C(O)(CNC(=O)c2ccc3ncsc3c2)C(F)(F)F)nc1-c1ccc(F)c(Cl)c1 (stereo not shown) [Compound 254] | < 1000 nM | 1000 to 50000 nM | 10 to 100 µM | –
16 | CC1(C)COc2c1cc(C(O)(CNC(=O)c1cc(O)c3ncccc3c1)C(F)(F)F)nc2-c1ccc(F)c(Cl)c1 (stereo not shown) [Compound 207] | < 1000 nM | 1000 to 50000 nM | 10 to 100 µM | –
17 | CC(C)(N)c1cc(-c2ccc(F)c(Cl)c2)nc(C(O)(CNC(=O)c2cncs2)C(F)(F)F)c1 (stereo not shown) [Compound 278] | < 1000 nM | 1000 to 50000 nM | 10 to 100 µM | –
18 | COc1cc(C(=O)NC[C@](O)(c2cc3c(c(-c4ccc(F)cc4)n2)OC[C@]3(C)N)C(F)(F)F)ccc1OC[C@@H](C)O [Compound 631] | < 1000 nM | < 1000 nM | 10 to 100 µM | –
19 | COc1ccc(C(O)(CNC(=O)c2ccc(OCCO)c(Cl)c2)C(F)(F)F)nc1-c1ccc(F)c(Cl)c1 (stereo not shown) [Compound 262] | < 1000 nM | < 1000 nM | 10 to 100 µM | –
20 | COc1ccc(C(C)(O)CNC(=O)c2ccc(-c3nc(C)no3)cc2)nc1-c1ccc(F)c(Cl)c1 (stereo not shown) [Compound 175] | < 10000 nM | 1000 to 50000 nM | > 100 µM | –
21 | COc1cc(C(=O)NCC(O)c2cccc(-c3csc4c(F)cccc34)n2)ccc1OCCO (stereo not shown) [Compound 165] | < 10000 nM | 1000 to 50000 nM | 10 to 100 µM | –

Row | Compound | IC50 (recombinant RSV complex) | EC50 [1, 3] | CC50 at 5 days [2] | EC50 [1, 4]
22 | COc1cc(C(=O)NCC(C)(O)c2cc(CO)cc(-c3ccc(F)c(Cl)c3)n2)ccc1OCC1CC1 (stereo not shown) [Compound 101] | < 1000 nM | < 1000 nM | 10 to 100 µM | –
23 | COc1ccc(C(=O)NCC(OC)c2cccc(-c3csc4c(F)cccc34)n2)cc1OC (stereo not shown) [Compound 148] | < 10000 nM | 1000 to 50000 nM | 10 to 100 µM | –
24 | COc1ccc(C(O)(CNC(=O)c2ccc3[nH]cnc3c2)C(F)(F)F)nc1-c1ccc(F)c(Cl)c1 (stereo not shown) [Compound 253] | < 10000 nM | 1000 to 50000 nM | 10 to 100 µM | –
25 | COc1cc(C(=O)NCC(O)(c2cc(C(C)(C)N)cc(-c3ccc(F)c(Cl)c3)n2)C(F)(F)F)ccc1O[C@@H]1CCNC1=O (stereo partly shown) [Compound 285] | < 1000 nM | < 1000 nM | 10 to 100 µM | –
26 | COc1ccc(C(=O)NCC(O)c2cc(C)cc(-c3csc4c(F)cccc34)n2)cc1OC (stereo not shown) [Compound 111] | – | – | 10 to 100 µM | 1000 to 50000 nM
27 | COc1ccc(C(=O)NCC(O)c2nc(-c3csc4c(F)cccc34)cn2C)cc1OC (stereo not shown) [Compound 133] | – | – | 10 to 100 µM | 1000 to 50000 nM
28 | COc1ccc(C(=O)NCC(O)c2nc(-c3csc4c(F)cccc34)cs2)cc1OC (stereo not shown) [Compound 134] | – | – | 10 to 100 µM | 1000 to 50000 nM
29 | COc1ccc(C(=O)NCC(O)c2csc(-c3csc4c(F)cccc34)n2)cc1OC (stereo not shown) [Compound 108] | – | – | > 100 µM | 1000 to 50000 nM
30 | COc1ccc(C(=O)NCC(O)(c2ccc(OC)c(-c3ccc(F)c(Cl)c3)n2)C(F)(F)F)cc1OC (stereo not shown) [Compound 337] | – | 1000 to 50000 nM | 10 to 100 µM | –
31 | CCCn1nc(C(O)CNC(=O)c2ccc(OC)c(OC)c2)nc1-c1csc2c(F)cccc12 (stereo not shown) [Compound 107] | – | – | 10 to 100 µM | 1000 to 50000 nM
32 | COc1cc(C(=O)NCC(O)(c2ccc(OC)c(-c3ccc(F)c(Cl)c3)n2)C(F)(F)F)ccc1OC1CCCNC1=O (stereo not shown) [Compound 340] | – | – | 10 to 100 µM | < 1000 nM
33 | COc1cc(C(=O)NCC(=O)c2cc3c(c(-c4ccc(F)c(Cl)c4)n2)OCC3(C)C)cc2c(C)ccnc12 [Compound 229] | – | – | > 100 µM | 1000 to 50000 nM
34 | COc1cc(-c2csc3c(F)cccc23)nc(C(O)CNC(=O)c2ccc(OC)c(OC)c2)c1 (stereo not shown) [Compound 100] | – | – | 10 to 100 µM | 1000 to 50000 nM
35 | COc1ccc(C(=O)NCC(O)c2nc(-c3csc4c(F)cccc34)c[nH]2)cc1OC (stereo not shown) [Compound 132] | – | – | 10 to 100 µM | 1000 to 50000 nM
36 | CNC(=O)COc1ccc(C(=O)NCC(C)(O)c2cccc(-c3ccc(F)c(Cl)c3)n2)cc1OC (stereo not shown) [Compound 121] | – | – | > 100 µM | 1000 to 50000 nM
37 | COc1cc(C(=O)NCC(O)(c2ccc(OC)c(-c3ccc(F)c(Cl)c3)n2)C2CC2)ccc1CCO (stereo not shown) [Compound 433] | – | – | 10 to 100 µM | < 1000 nM
38 | COc1cc(C(O)CNC(=O)c2ccc(OC)c(OC)c2)nc(-c2csc3c(F)cccc23)n1 (stereo not shown) [Compound 112] | – | – | 10 to 100 µM | 1000 to 50000 nM
39 | COc1cc(C(=O)NCC(O)(c2ccc(OC)c(-c3ccc(F)c(Cl)c3)n2)C2CC2)ccc1OCC(N)=O (stereo not shown) [Compound 429] | – | – | 10 to 100 µM | < 1000 nM
40 | COc1cc(-c2csc3c(F)cccc23)nc(C(O)CNC(=O)c2ccc(OC)c(OC)c2)n1 (stereo not shown) [Compound 131] | – | – | 10 to 100 µM | 1000 to 50000 nM
41 | COc1cc(C(=O)NCC(O)(c2ccc(OC)c(-c3ccc(F)c(Cl)c3)n2)C(F)(F)F)ccc1OC1CC1 (single isomer, unassigned) [Compound 247] | < 10000 nM | – | > 100 µM | –
42 | COc1ccc(C(=O)NCC(O)c2nc(-c3csc4c(F)cccc34)n3ccccc23)cc1OC (stereo not shown) [Compound 113] | – | – | 10 to 100 µM | 1000 to 50000 nM
